Read-outs that look alike come from different tables or passages of the source.
Experiments:
[1] = system: SARS-CoV-2; type: cell-based; settings: Caco-2 cells, MOI 0.01, 24 hours post-infection
[2] = system: SARS-CoV-2; type: cell-based; settings: Caco-2 cells; for reduction of virus production in the supernatants: after 8, 12 and 24 h, at concentrations as low as 1μM; for reduction of SARS-Cov2 RNA levels in infected cells: after 4 hours
[3] = target: SARS-CoV-2 Mpro (Severe acute respiratory syndrome coronavirus 2, UniProt P0DTD1); type: biochemical
[4] = system: SARS-CoV-2; type: cell-based; settings: 100 μM compound, 24 hours post-infection
[5] = system: SARS-CoV-2; type: cell-based; settings: Calu-3 human lung cells, MOI 0.01, 24 hours post-infection
[6] = system: SARS-CoV-2; type: cell-based; settings: primary bronchial epithelial cells, 10 μM or 1 μM, 48 h post-infection
[7] = system: SARS-CoV-2; type: cell-based; settings: primary nasal epithelial cells, 10 μM or 1 μM, 48 h post-infection
[8] = system: syncytia formation in SARS-CoV-2 infected Vero cells; type: cell-based
[9] = system: syncytia formation in SARS-CoV-2 infected A549-ACE2/TMPRSS2 cells; type: cell-based
[10] = system: HCoV-OC43; type: cell-based; settings: 10 μM, HRT-18G cells

SMILES | lowest concentration reducing the infectivity of SARS-CoV-2 [1] | reduction of virus production in the supernatants [2] | reduction of SARS-Cov2 RNA levels in infected cells [2] | inhibition of SARS-CoV-2 Mpro ([3]; 10 μM compound, Mpro at 2 μM) | inhibition of SARS-CoV-2 Mpro ([3]; 100 μM compound) | infectivity of SARS-CoV2 in Vero cells [4] | lowest concentration reducing the infectivity of SARS-CoV-2 [5] | SARS-Cov2 RNA levels in infected cells [6] | virus production (supernatants titered on Vero cells) [6] | SARS-Cov2 RNA levels in infected cells [7] | virus production (supernatants titered on Vero cells) [7] | syncytia formation (fusion index) [8] | syncytia formation (fusion index) [9] | activity on HCov-OC43 [10]
O=C1CCC[C@@H](C(=O)O)N1 [lactam 3, (S)-6-oxopiperidine-2-carboxylic acid] | 15 nM | about 100 fold | about 20% | – | – | – | – | – | – | – | – | – | – | –
O=C1CSC[C@@H](C(=O)O)N1 [lactam 2, (R)-5-oxothiomorpholine-3-carboxylic acid] | 45 nM | about 100 fold | about 20% | about 50% | complete inhibition | reducing the infectivity | 45 nM | reduction in SARS-Cov2 RNA levels | reduction of virus production | reduction in SARS-Cov2 RNA levels | reduction of virus production | reducing syncytia formation | reducing syncytia formation | active

From patent publication US20240000794A1, “LACTAM AND LACTONE DERIVATIVES FOR USE IN THE TREATMENT OF A VIRAL INFECTION SUCH AS COVID-19” (UNIVERSITÉ CATHOLIQUE DE LOUVAIN, priority 2020, published 2024)
